From patent US7575764B2, “Compositions comprising hypsizygus ulmarius extract” (ELC Management LLC, priority 2005, dated 2009)

Experiments:
[1] = tested on: LTB4-mediated neutrophil chemotaxis; assay: Inhibition of neutrophil (PMN) chemotaxis toward LTB4, Boyden chamber; format: cell-based, human
Method: Three test samples, identical to powder samples 1, 2 and 3 in Example 1, were assayed for their ability to inhibit neutrophil chemotaxis toward Leukotriene B4. The assay is designed to assess the ability of a material to inhibit the migration of polymorphonuclear leukocytes (PMN) toward a known chemotactic agent, LTB4. […] The PMN rich fraction was removed and red blood cells (RBC) were lysed with hypotonic saline. The PMN were washed twice with Hank's Balanced Salt Solution (HBSS) and then resuspended in 5.0 ml HBSS with ions supplemented with 0.4% bovine serum albumin (Sigma). The concentration of cells was adjusted to 10×106 PMN/ml. Collected PMNs were greater than 95% pure and 98% viable as assessed by the trypan blue exclusion assay. The assay was performed using the Boyden chamber apparatus with blind well chambers fitted with 5 μm pore size filters (Millipore). The apparatus consists of two vertical chambers separated by a filter that contains pores of a size chosen such that the holes are large enough for the cells to actively crawl through them but not so large that the cells can physically fall through into the lower chamber. […] The chemoattractant used in the present experiment was 0.125 nM LTB4. Following incubation at 37° C. for 90 min., under a humidified atmosphere with 5% CO2, the filters were fixed with propanol and stained with haematoxylin and eosin. The PMN chemotactic response was determined by the distance to the leading front and the number of cells that migrated to the front. The distance to the leading front was determined at 400× magnification by the distance the majority of the cells migrated through the filter. The results were expressed as the average number of cells per high powered field at the leading (migratory) front (PMN/HPF). In this assay, 0.5% caffeine was used as a positive control. A negative control, with no anti-chemotactic agent, was also used. The results, shown in Table 4, are the percent reduction in chemotactic activity compared to the negative control.

[2] = tested on: IL-1β mediated adhesion of neutrophils; assay: Inhibition of IL-1β mediated adhesion of neutrophils (PMN) to human dermal microvascular endothelial cells; format: cell-based
Method: Three samples identical to those in example 4 were tested for their ability to inhibit endothelial adhesion of neutrophils by interfering with the effects of IL-1β. These samples were tested at final concentrations of 0.1% and 1% (w/v). Neutrophil adhesion was inhibited dose dependently with all samples tested. Adhesion of PMN to human dermal microvascular cells is a required step in the recruitment of leukocytes into the site of infection or irritation and was modeled for this assay in the following manner. […] The PMN rich fraction was removed and RBC were lysed with hypotonic saline. The PMN were washed twice with Hank's balanced salt solution (HBSS) and then resuspended in 5.0 ml HBSS with ions supplemented with 0.4% bovine serum albumin (Sigma). The concentration of cells was adjusted to 10×106 PMN/ml. Collected PMNs were greater than 95% pure and 98% viable as assessed by the trypan blue exclusion assay. […] In preliminary experiments the optimum concentrations of stimulatory agents (IL-1β, 10 U/ml and TPA, 5 ng/ml) were determined. […] After 30-45 min, the wells were read in an ELISA reader (Bio-Tek Instruments Inc, Winooslei, Vt., USA) at 570 nm. The level of adherence was given as the mean optical density (OD) reading at an OD570 for wells containing endothelial cells plus PMN minus the mean OD570 of wells containing endothelial cells alone.

Cn1c(=O)c2c(ncn2C)n(C)c1=O [caffeine]
Percent reduction in chemotactic activity compared to the negative control ([1]; Example 2, 0.5% (w/v), 0.125 nM LTB4): 96%
Percent reduction in chemotactic activity compared to negative control ([1]; Example 4, 0.1% (w/v), 0.125 nM LTB4): 93%
Percent reduction in chemotactic activity compared to negative control ([1]; Example 6, concentration 0.5%): 94%
Percent reduction in chemotactic activity compared to negative control ([1]; Example 7, positive control at 0.5% concentration): 97%
Percent reduction in adhesion activity compared to negative control ([2]; Example 5, 1.0% (w/v), IL-1β 10 U/ml): 64%
Percent reduction in adhesion activity compared to negative control ([2]; Example 8, positive control at 1.0% concentration): 47%
